Measured values from patent US4745101A, “Novel peptide having dentinal fluid transport-stimulating activity” (Teikoku Hormone Mfg. Co., Ltd., priority 1985, dated 1988).
Where no end group is shown, it is not given here.

Test: Solubility
Assay type: physicochemical
Text: Soluble in water and physiological saline. Insoluble in acetone.

GVIAWELQHNQPGRKDSTAG [Peptide of the invention]
Solubility (in acetone): Insoluble | Solubility (in physiological saline): Soluble | Solubility (in water): Soluble
